Measured values published in patent US5792796A, “Methods for treating anxiety and panic” (Warner-Lambert Company, priority 1995, dated 1998).

Tests used:
rats = assay: Rat conflict test
Procedure: Male Hooded Lister rats (200-250 g) were obtained from Interfauna (Huntingdon, UK) and male TO mice (20-25 g) were obtained from Bantin and Kingman (Hull, UK). Both rodent species were housed in groups of six. Ten Common Marmosets (Callithrix Jacchus) weighing between 280 and 360 g, bred at Manchester University Medical School (Manchester, UK) were housed in pairs. All animals were housed under a 12-hour light/dark cycle (lights on at 07.00 hour) and with food and water ad libitum.
Rats were trained to press levers for food reward in operant chambers. The schedule consisted of alternations of four 4-minute unpunished periods on variable interval of 30 seconds signalled by chamber lights on and three 3-minute punished periods on fixed ratio 5 (by footshock concomitant to food delivery) signalled by chamber lights off. The degree of footshock was adjusted for each rat to obtain approximately 80% to 90% suppression of responding in comparison with unpunished responding. Rats received saline vehicle on training days.
The results are expressed as mean percent increase or decrease of lever pressing (vertical bars represent ±SEM) of at least 5 animals per group on test day compared with mean performances obtained the 2 previous days following vehicle administration.
*p <0.05, **p <0.01 (paired Student t-test).

[1] = in vivo; cited from earlier work
[2] = in vivo; cited from earlier work; remark: listed apart in the source
glycine/NMDA receptor = conditions: previous radioligand binding studies; cited from earlier work

With `CNC1=Nc2ccc(Cl)cc2C(c2ccccc2)=[N+]([O-])C1` [chlordiazepoxide] the “increase in lever pressing in the punished period” value (rats; 3 mg/kg (minimum effective dose), 40 minutes before test) was 128.4%, the “maximal effect, increase in lever pressing in the punished period” value (rats; 30 mg/kg, 40 minutes before test) was 330.0% and the minimal effective dose (rats; Rattus norvegicus, 40 min, read-out: minimum effective dose (MED) for increased lever pressing in the punished period) was 3 mg/kg. For the same molecule, the unpunished responding (rats; any of the doses tested (1-100 mg/kg)) was “not reduced”.

For `NCC1(CC(=O)O)CCCCC1` [gabapentin, 1-(aminomethyl)cyclohexaneacetic acid], the “penetration of the blood-brain barrier” value [1] is listed as “readily penetrates”, the “metabolism in the body” value [2] is listed as “not metabolized” and the “reduction in lever pressing in the unpunished period (indicating sedation/ataxia)” value (rats; 100 mg/kg (highest dose tested)) is listed as 37.4%. The “binding to the glycine/NMDA receptor” value (glycine/NMDA receptor) was “does not bind”.
